Results as given in paper PMC3361971 (Journal of Natural Products, 2012).
Converted amounts (≈) assume the structure as drawn.

How the values were obtained:
[1] = test system: lettuce (Lactuca sativa cv. L., Iceberg); assay: Phytotoxicity assay, lettuce; settings: 1 mg/mL; visual ranking on scale of 0 to 5; in the presence of light
[2] = test system: bentgrass (Agrostis stolonifera); assay: Phytotoxicity assay, bentgrass; settings: 1 mg/mL; visual ranking on scale of 0 to 5; in the presence of light
[3] = test system: Staphylococcus aureus ATCC 29213; assay: Antimicrobial assay, methicillin-sensitive Staph. aureus; assay type: cell-based; settings: ATCC29213
[4] = test system: methicillin-resistant Staphylococcus aureus ATCC 33591 (MRSA); assay: Antimicrobial assay, methicillin-resistant Staph. aureus; assay type: cell-based; settings: ATCC33591|MRSA
[5] = test system: Leishmania donovani promastigotes; assay: Antileishmanial assay; assay type: cell-based; settings: read-out: Antileishmanial activity IC90
[6] = test system: Vero cells (kidney fibroblast); assay: Cytotoxicity to Vero cells; assay type: cell-based
[7] = test system: Plasmodium falciparum D6 (chloroquine sensitive) strain; assay: Antiplasmodial assay, chloroquine-sensitive; assay type: cell-based; settings: selectivity index = IC50 for cytotoxicity (Vero)/IC50 for antiplasmodial activity
[8] = test system: Plasmodium falciparum W2 (chloroquine resistant) strain; assay: Antiplasmodial assay, chloroquine-resistant; assay type: cell-based; settings: selectivity index = IC50 for cytotoxicity (Vero)/IC50 for antiplasmodial activity

Compound | Phytotoxic activity ranking, lettuce [1] | Phytotoxic activity ranking, bentgrass [2] | also measured
COc1c(C[C@@H](C)O)c2c3c(C[C@@H](C)O)c(OC)c(=O)c4c(O)cc5c(c6c(cc(O)c(c1=O)c62)OCO5)c43 [Compound 5, (+)-cercosporin] | 3 | 2 | MIC [3]: 2.5 ng/mL (≈ 4.68 nM); MIC [4]: 5 ng/mL (≈ 9.35 nM)
COc1c(C[C@@H](C)OC(C)=O)c2c3c(C[C@@H](C)O)c(OC)c(=O)c4c(O)cc5c(c6c(cc(O)c(c1=O)c62)OCO5)c43 [Compound 6, (+)-14-O-acetylcercosporin] | 2 | 4 | IC90 [5]: 8.5 µM
13-(R)-hydroxy-N-(O-methyl)septoriamycin A [Compound 4] |  |  | Cytotoxicity to Vero cells IC50 [6]: no antimicrobial, antifungal, antiprotozoal, phytotoxic, or cytotoxic activity
COc1c(C[C@@H](C)OC(C)=O)c2c3c(C[C@@H](C)OC(C)=O)c(OC)c(=O)c4c(O)cc5c(c6c(cc(O)c(c1=O)c62)OCO5)c43 [Compound 7, (+)-di-O-acetylcercosporin] | 3 | 4 | 
CC[C@@H](C)[C@H]1O[C@@H](c2c(OC)c(-c3ccccc3)c[n+]([O-])c2OC)[C@H](C)C[C@@H]1C [Compound 10c] |  |  | Chloroquine-sensitive (D6)-clone S.I. [7]: >1.1; Chloroquine-resistant (W2)-clone S. I. [8]: >1.2
